In paper PMC4121097, “Glioma-Associated Antigen HEATR1 Induces Functional Cytotoxic T Lymphocytes in Patients with Glioma” (Journal of Immunology Research, 2014):

Experiments:
[1] = molecular target: T1, HLA-A∗02:01 on T2 cells (Homo sapiens, UniProt P04439, D140Y/D185E/D98H/E176V/E277Q/G131W/G231S/I119V/I121R/I166T/I218V/L300P/L318F/N151K/N90K/P208A/P217A/Q86G/Q94H/R138H/R169H/T345S); assay: T2-cell-peptide binding test (peptide-induced HLA-A∗02:01 expression, flow cytometry); settings: peptide 20 μg/mL; for affinity for binding to HLA-A∗02 (in words): 4 h, Figure 2(b); for percentage of MFI increase of HLA-A∗02:01: 4 h in SFM, BB7.2 anti-HLA-A∗02:01 mAb, mean ± SE of three independent experiments, SEM
T1 construct: measuring peptide-induced expression of HLA-A∗02:01 on T2 cells using flow cytometry; host or cells: T2 cells (human, TAP1/TAP2-deficient)
Procedure: The binding activity of selected peptides to the HLA-A∗02 molecule was determined semiquantitatively by measuring peptide-induced expression of HLA-A∗02:01 on T2 cells using flow cytometry. The T2 cells were incubated for 4 h with the candidate peptides, respectively, at a concentration of 20 μg/mL in SFM. After being washed with phosphate buffered saline-fetal calf serum (PBS-FCS), the T2 cells were incubated with supernatant containing murine mAb against HLA-A∗02:01 derived from BB7.2 cells for 30 min at 4°C. The T2 cells were washed twice with PBS-FCS and stained with 5 μg/mL diluted fluorescein isothiocyanate-conjugated immunoglobulin G which reacts to mouse immunoglobulin for 30 min. The cells were then rinsed three times with PBS-FCS and analyzed using a FACSAria flow cytometer. The percent mean fluorescence index (% MFI) increase of HLA-A∗02:01 molecules was calculated as follows: % MFI increase = [(MFI with peptide − MFI without peptide)]/(MFI without peptide) × 100 [27].

[2] = system: PBMCs from healthy donors and patients with glioma; assay: IFN-γ ELISpot assay with PBMCs; type: cell-based, human; settings: PBMCs from five HLA-A∗02+ patients with GBM and one control patient with benign tumor, Figure 4
Procedure: A human IFN-γ ELISpot kit (552138; BD Pharmingen, CA) was used to quantify the CTL response in PBMCs. Several 96-well plates were coated with purified anti-human IFN-γ monoclonal antibodies at the concentration of 5 μg/mL at 100 μL/well and incubated at 4°C overnight and then washed once with 200 μL/well of RPMI-1640 containing 10% FBS and 1% penicillin-streptomycin-L-glutamine (R10) and blocked with 200 μL/well R10 for 2 h at room temperature. PBMCs were then washed twice with R10 and resuspended in R10 complete culture medium. After being counted, the cells were then adjusted to the concentration of 1 × 10^6 cells/mL and plated onto a 96-well ELISpot plate at 50 μL/well (5 × 10^4 cells/well) with the addition of 50 μL of the peptide. The final concentration of each peptide was 5 μg/mL. The 96-well ELISpot plates were incubated for about 20 h at 37°C in 5% CO2. After incubation, the ELISpot plates were developed according to the kit instructions. Finally, the plates were air-dried and the resulting spots were counted with ChampSpot IV Bioreader (Beijing SAGE Creation Science, Beijing, China). Peptide-specific IFN-γ ELISpot responses were considered positive only when the number of spots was twofold greater than the control peptide stimulation and there were >50 spots per 1 × 10^6 PBMCs.

Sequence | affinity for binding to HLA-A∗02 (in words) [1] | percentage of MFI increase of HLA-A∗02:01 [1] [%] | ELISpot response to individual peptide (in words) [2]
FLFDTQHFI [HEATR1_2003–2011] | lower affinity | – | –
LLPESIPFL [HEATR1_2102–2110] | – | 285.2 ± 49.2 | –
KMVEDLISV [HEATR1_682–690] | highest affinity | 308.5 ± 4.8 | higher than the others
LMLDRGIPV [HEATR1_757–765] | – | 228.7 ± 5.4 | highest ELISpot response
FLWILLILL [HEATR1_1411–1419] | lowest affinity | – | –
KLLRMLFDL [HEATR1_1126–1134] | – | 287.2 ± 7.7 | higher than the others
